Patent publication EP1311486B1, “USES OF THALIPORPHINE OR ITS DERIVATIVES IN TREATMENT OF CARDIAC DISEASES AND PREPARATION OF SAME” (Lotus Pharmaceutical Co., Ltd., priority 2000, dated 2002)
Marks after values point to notes of the source that are not given here.

How the values were obtained:
AV node conduction = assay: His bundle electrogram of isolated heart, Langendorff perfusion, atrial pacing at 300 ms cycle length; set-up: species or system rats and guinea pigs; conditions: for atrial effective refractory period (AERP): before drug THP 60 ms, quinidine 40 ms; for ventricular effective refractory period (VERP): before drug THP 160 ms, quinidine 180 ms; for AV node effective refractory period (AVNERP): before drug THP 170 ms, quinidine 130 ms; for wenckbach cycle length (WCL): before drug THP 200 ms, quinidine 150 ms
Protocol: The investigation conforms to the Guide for the Care and Use of Laboratory Animals published by the US National Institutes of Health (NIH publication No. 85-23, revised 1996). Adult rats and guinea pigs were killed after hepariniation and anesthetization with urethane (1.25 g/kg i.p.). After isolating the heart, the aorta was perfused with 10µM quinidine and THP, respectively, by Langendorff perfusion. A pair of bipolar electrodes connected with silver wire were placed on the tip of the Triangle of Koch to record the His bundle electrogram. In addition, another pair of bipolar electrodes connected with silver wire were placed on the surface of the right ventricle to record T wave. […] The QT interval, conduction time through the sinoatrial (SA interval), the atrioventricular node (AH interval) and His-purkinje system (HV interval) were recorded, respectively, using electrocardiograph. Similarly, the recovery curve of His-purkinje system (i.e. the relationship of H2V2 and V1H2), atrial and ventricular refractory period and AV node refractory period were also recorded in the same manner. 1 and 2.
The SA, AH, HV intervals and T wave are prolonged in the quinidine-treated heart (FIG. 1). […] In addition, 3, 10 and 30µM THP can prolong the atrial effective refractory period (AERP) from 60 ms to 90, 100 and 120 ms, respectively; the ventricular effective refractory period (VERP) from 160 ms to 160, 170 and 190 ms, respectively; and the AV node effective refractory period (AVNERP) from 170 ms to 170, 200 and 240 ms, respectively. When compared with THP in the same manner, 3,10 and 30µM quinidine can prolong the AERP from 40 ms to 60, 80 and 130 ms; the VERP from 180 ms to 170, 180 and 190 ms; and the AVNERP from 130 ms to 150, 200 and 245 ms, respectively. Further, 3, 10 and 30µM THP can change the wenckbach cycle length (WCL) from 200 ms to 210, 230 and 280 ms, respectively; whereas 3, 10 and 30µM quinidine can change the WCL from 150 ms to 170, 210 and 300 ms, respectively. Both THP and quinidine prolong AERP, VERP and AVNERP, however, only quinidine inhibits conduction in AV node (prolonged AH interval). In contrast, even when the THP concentration raised to 10µM, the conduction in AV node is not inhibited.

[1] = tested on: isolated guinea pig hearts; assay: Reperfusion-induced ventricular fibrillation in isolated guinea pig hearts subjected to global ischemia
Protocol: The isolated guinea pig hearts were ligated by global ischemia. Reperfusion was achieved by releasing the tension applyied to the ligature. Various concentrations of THP were then administered and the ventricular fibrillarion (VF) was recorded. Table 1 Effects of THP on reperfusion-induced ventricular fibrillation in isolated guinea pig hearts subjected to global ischemia
Similarly, 10µM THP can be effective in inhibiting the cardiac arrhythmia induced in the isolated guinea pig heart subjected to global ischemia followed by reperfusion (Table 1). The structure of coronary arteries between rat and guinea pig are not alike, THP, however, can be effective in inhibiting the arrhythmia induced in the isolated heart subjected to ischemia-reperfusion in both animals.

inward sodium current = conditions: Su MJ, et al., Eur. J. Pharmacol., 1994; cited from earlier work

## COc1cc2c(cc1OC)-c1c(O)c(OC)cc3c1C(C2)N(C)CC3 (single isomer, unassigned; (+)) [THP, (+)-Thaliporphine]
AV node conduction; 3µM
  atrial effective refractory period (AERP): 90 ms
  ventricular effective refractory period (VERP): 160 ms
  AV node effective refractory period (AVNERP): 170 ms
  wenckbach cycle length (WCL): 210 ms
AV node conduction; 10µM, isolated perfused heart
  AH interval (conduction in AV node): not inhibited
  HV interval: prolonged slightly
  SA interval: remains unaffected
AV node conduction; 10µM
  atrial effective refractory period (AERP): 100 ms
  ventricular effective refractory period (VERP): 170 ms
  AV node effective refractory period (AVNERP): 200 ms
  wenckbach cycle length (WCL): 230 ms
AV node conduction; 30µM
  atrial effective refractory period (AERP): 120 ms
  ventricular effective refractory period (VERP): 190 ms
  AV node effective refractory period (AVNERP): 240 ms
  wenckbach cycle length (WCL): 280 ms
[1]; 3 µM
  %VF: 25* %
[1]; 3 µM, N 8
  VF (number of hearts): 2
[1]; 10 µM
  %VF: 0* %
[1]; 10 µM, N 6
  VF (number of hearts): 0
Inward sodium current
  inward sodium current: inhibit
